# Assay results: patent EP0398925B1, “GROWTH INHIBITING AGENT AND THE USE THEREOF” (CHILDREN'S HOSPITAL CORPORATION, priority 1988, dated 1989)
# Tests used:
# [1] = system: chorioallantoic membrane of the chick embryo; assay: CAM assay: avascular zone around a methylcellulose disc holding the test substance; format: in vivo; conditions: for angiogenesis-inhibition: 100 µg of cyclodextrin with 50 µg of hydrocortisone, no successes at (+) or (++) level; for angiogenesis suppression activity: unmodified CDs with hydrocortisone (Examples 18-20)
# Description: A more economic bioassay makes use of the chorioallantoic membrane of the chick embryo. This test will for convenience be referred to hereinafter as the "CAM assay". For a more detailed description of the CAM assay, see Folkman et al., Science 221:719 (1983). A typical CAM assay, such as used for the evaluations in the examples in Section 7, infra, employs 16 eggs per experiment. A 2 mm diameter disk of methylcellulose containing the test substance is applied to the chorioallantoic membrane of a 6-day chick embryo, cultured in a Petri dish, in a humidified incubator with 3% carbon dioxide. Two days later (8-day embryo), the membrane is examined under a stereomicroscope at six- to ten-fold magnification. Inhibition of angiogenesis by the test substance is evidenced by the development of an avascular zone around the methylcellulose disc. An avascular zone of 4 mm is graded as (++) and an avascular zone of 2 mm is graded as (+). […] A rating of zero % reflects absence of inhibition or the test substance under the test conditions.
# The sustained release methylcellulose discs are prepared by dispersing appropriate amount(s) of the test substance of substances in an 0.45% aqueous solution of methylcellulose, and depositing 10 microliter aliquots of the resulting solution in a Teflon mold, followed by air drying for about one hour in a laminar flow hood.
# rabbit cornea [2] = assay: Rabbit cornea test, endotoxin Elvax implant, test substance given in a second Elvax implant; format: in vivo; conditions: day 13, Elvax pellet with β-CD-TDS 15 µg/mm³ and/or cortexolone 30 µg/mm³, over 100% = stimulation; for Vessel Density, Inhibition (% of Untreated Control Group): length-density index
# Procedure: In another series of experiments, the antiangiogenic activity of a water-soluble cyclodextrin salt derivative in combination with cortexolone was evaluated using the rabbit cornea test as described by Gimbrone et al., J. Nat'l Cancer Inst. 52:413 (1974). In these experiments, E. coli endotoxin (17 µg/mm³) incorporated into sustained release polymer pellets of ethylene vinylacetate copolymer [Elvax, Sigma Chemical, St. Louis, MO (hereinafter "Elvax")] was implanted between the vascular limbal edge of the rabbit corneas. The test substance(s) were administered by means of a second Elvax implant incorporating the particular test substance.
# Elvax containing endotoxin was implanted into the corneas of 12 rabbits. The animals were then divided into 4 groups and 4 eyes were treated for each group as follows: Group 1, received no further treatment and served as the control group; Group 2, β-CD-TDS at 15 µg/mm³ Elvax pellet; Group 3, cortexolone at 30 µg/mm³ Elvax pellet; and Group 4, a combination of β-CD-TDS and cortexolone incorporated into an Elvax pellat at a final concentration of 15 µg/mm³ Elvax of β-CD-TDS and 30 µg/mm³ Elvax of cortexolone. The vessel length of new capillary growth was measured every 2 days with a slit-lamp stereoscope at 10X using an ocular grid calibrated to ± 0.1 mm.
# Thus, the vessel density was also evaluated and graded using the following scale: O=no vessels/cornea; 1=1-4 vessels/cornea; 2=5-20 vessels/cornea; 3=20-50 vessels/cornea; and 4=more than 50 vessels/cornea. This grade was then multiplied by mean maximal length of the vessels to obtain a semi-quantitative estimate of vessel density (length-density index) for each cornea.
# rabbit cornea [3] = assay: Rabbit corneal test, endotoxin implant, test substance applied topically as eye drops; format: in vivo; conditions: eye drops in saline; 9th day; hydrocortisone 0.5 mg/ml, β-CD-TDS 1.0 mg/ml (combination uses hydrocortisone-21-phosphate)
# Description: The rabbit corneal test described by Perlin, Fed. Proc. 36:101 (1977) modified as described below, was employed to examine the effectiveness of a combination of β-CD-TDS and hydrocortisone In this corneal test, a sustained release polymer impregnated with bacterial endotoxin was first implanted in rabbit corneas. Endotoxin slowly released from this implant induces angiogenesis in the cornea in a manner analogous to the neovascularization observed in patients rejecting a corneal transplant. Rather than employing a second implant containing the test substance to deliver such test substance as generally used, in the present experiments the test substance was applied topically to the cornea, i.e., in the form of eye drops. Animals having received an endotoxin-containing implant were divided into four groups and were treated by topical application (eye drops) as follows: Group 1, was not treated further and served as the control group; Group 2, received hydrocortisone alone (0.5 mg/ml); Group 3, hydrocortisone-21-phosphate and β-CD-TDS, (0.5 mg/ml and 1.0 mg/ml, respectively); and Group 4, β-CD-TDS (1.0 mg/ml). The diluent for the eye drops was saline in all cases. FIG. 3 (A-D) illustrates the results typically obtained on the 9th day post-implantation and treatment.
# [4] = Solubility in liquid water at zero °C; format: physicochemical
# Description: The CD derivatives useful in the present invention are highly hydrophilic and therefore very water soluble. Without wishing to be bound by theory, we believe that a highly hydrophilic character is important to allow interaction with cellular surfaces. We also believe a very high water solubility of the derivative is an important factor which cooperatively interacts with the inherent complexing ability of the CD structure to provide effective inhibition of angiogenesis with an exogenous steroid, as provided by this invention. We believe that the hydrophlilic activity is roughly indicated by the affinity to water, as measured by water solubility. It is important to measure the same at 0°C since at higher temperatures the most suitable derivative have solubilities so high that meaningful measurements are difficult. […] All solubility measurements referred to herein relate to the solubility of the substantially anhydrous derivatives, and when these are salts, to the anhydrous sodium form. […] In order to make comparisons that included the very water-soluble CD sulfates, the solubilities of which were so high at room temperature that measurement was not practical, all solubility measurements were made in liquid water at zero °C. One can picture this to be a measure of the competition of the hydrophile bonding with water in relation to the orderly bonding of water to itself.
# calf aortic SMC = assay: Suppression of smooth muscle cell growth in tissue culture; format: cell-based; conditions: each used alone, 0.03 µg/ml up to 400 µg/ml
# Procedure: (§1) The bioassay of this activity was made using tissue cultures of rat aortic SMC and calf aortic SMC, with dosages ranging from 0.03 µg/ml up to 400 µg/ml.
# rat aortic SMC = assay: as above; format: cell-based; conditions: each used alone, 0.03 µg/ml up to 400 µg/ml
# Procedure: as §1
# [5] = compound 25 µg/10 µl with 50 µg to 60 µg of hydrocortisone in 10 µl of 0.45% methylcellulose
# [6] = compound 100 µg/10 µl with 50 µg to 60 µg of hydrocortisone in 10 µl of 0.45% methylcellulose
# [7] = 25 µg/10 µl of β-CD-TDS with Cortexolone 50 µl/10 µl
compound,measurement,setting,value
"O=C(O)[C@@H]1CCN1 [(a) L-2-Azetidine, L-2-azetidinecarboxylic acid]",% Avascular zones,"[1]; L-2-Azetidine 400 ug/10 µl, (a) 0 µg CD-TDS, (b) 25 µg CD-TDS",28%
"C[C@]12CCC(=O)C=C1CC[C@@H]1[C@@H]2CC[C@@]2(C)[C@H]1CC[C@]2(O)C(=O)CO [Cortexolone, 17 alpha, 21-dihydroxypregn-4-ene-3,20-dione]",% Avascular zones,"[1]; Cortexolone alone, 50 µl/10 µl",zero
same,"Vessel Length, Inhibition (% of Untreated Control Group)",rabbit cornea [2],49%
same,"Vessel Length, Inhibition (% of Untreated Control Group)",rabbit cornea [2]; listed as cortexolone,about 49%
same,"Vessel Density, Inhibition (% of Untreated Control Group)",rabbit cornea [2],61%
same,"Vessel Density, Inhibition (% of Untreated Control Group)",rabbit cornea [2]; listed as cortexolone,about 61%
"C[C@]12CCC(=O)C=C1CC[C@@H]1[C@@H]2[C@@H](O)C[C@@]2(C)[C@H]1CC[C@]2(O)C(=O)CO [hydrocortisone, 11 beta, 17 alpha, 21-trihydroxypregn-4-ene-3,20-dione]",effect on endotoxin-induced angiogenesis in the cornea,rabbit cornea [3],only a slight inhibition of angiogenesis
"OC[C@H]1O[C@@H]2O[C@H]3[C@H](O)[C@@H](O)[C@@H](O[C@H]4[C@H](O)[C@@H](O)[C@@H](O[C@H]5[C@H](O)[C@@H](O)[C@@H](O[C@H]6[C@H](O)[C@@H](O)[C@@H](O[C@H]7[C@H](O)[C@@H](O)[C@@H](O[C@H]8[C@H](O)[C@@H](O)[C@@H](O[C@H]1[C@H](O)[C@H]2O)O[C@@H]8CO)O[C@@H]7CO)O[C@@H]6CO)O[C@@H]5CO)O[C@@H]4CO)O[C@@H]3CO [β-CD, β-cyclodextrin]",angiogenesis-inhibition,[1],total absence of angiogenesis-inhibition
same,% Avascular zones,[1]; [5],0.04%
same,% Avascular zones,[1]; [6],0%
same,angiogenesis suppression activity,[1],no indication of angiogenesis suppression activity
α-cyclodextrin [α-CD],angiogenesis-inhibition,[1],total absence of angiogenesis-inhibition
same,% Avascular zones,[1]; [5],0%
same,% Avascular zones,[1]; [6],5± 0.3%
same,angiogenesis suppression activity,[1],no indication of angiogenesis suppression activity
same,"Solubility 0°C, g/100 ml H₂O",[4],6 g/100 ml H₂O
β-cyclodextrin tetradeca sulfate [β-CD-TDS],% Avascular zones,[1]; [7],85%
same,% avascular zones (++) or greater,[1]; [7],31%
same,% Avascular zones,[1]; [5],58± 7.0%
same,% Avascular zones,[1]; compound 50 µg/10 µl with 50 µg to 60 µg of hydrocortisone in 10 µl of 0.45% methylcellulose,75± 5.8%
same,% Avascular zones,[1]; [6],55± 7.5%
same,"Solubility 0°C, g/100 ml H₂O",[4],42 g/100 ml H₂O
same,effectiveness relative to whole heparin in suppressing smooth muscle cell (SMC) growth,calf aortic SMC,about three
same,effectiveness relative to whole heparin in suppressing smooth muscle cell (SMC) growth,rat aortic SMC,about three
same,effect on endotoxin-induced angiogenesis in the cornea,rabbit cornea [3],slight stimulation of angiogenesis
γ-cyclodextrin [γ-CD],angiogenesis-inhibition,[1],total absence of angiogenesis-inhibition
same,% Avascular zones,[1]; [6],0%
same,angiogenesis suppression activity,[1],no indication of angiogenesis suppression activity
